According to ChEMBL document CHEMBL1127036, “Design of antineoplastic agents on the basis of the "2-phenylnaphthalene-type" structural pattern. 2. Synthesis and biological activity studies of benzo]b]naphtho[2,3-d]furan-6,11-dione derivatives” (J Med Chem, 1993):
Calls of active or inactive are those of the source. The calls are words filed in the database; no cut-off is given here.

Key:
Type in all cases: functional, cell-based
N592 = experiment: Cytotoxicity against human small-cell lung cancer (SCLC)
[1] = Cytotoxicity against human SCLC cells resistant to cisplatin (SCLC/CDDP)
CCRF-CEM [2] = experiment: Tested for inhibition against CEM/MDR (multidrug resistant) cells; conditions: Homo sapiens
HL-60 = experiment: Tested for inhibition against human promyelocytic leukemia cells (HL-60 )
CCRF-CEM [3] = experiment: Tested for inhibition against CEM cells; conditions: Homo sapiens
Tumor Cell line [4] = experiment: Tested for the inhibition of human cancer cell growth (NCI drug-discovery screen.)
Tumor Cell line [5] = experiment: Tested for the inhibition of human cancer cell growth (NCI drug-discovery screen.); Inactive

Molecule	IC50 (N592; Homo sapiens, N592) [nM]	IC50 ([1]; Homo sapiens, SCLC) [nM]	IC50 (CCRF-CEM [2]) [nM]	IC50 (HL-60) [nM]	IC50 (CCRF-CEM [3]) [nM]	IC50 (Tumor Cell line [4]) [nM]	Log IC50 (Tumor Cell line [5])	IC50 (N592; n592) [nM]	IC50 ([1]; sclc) [nM]
CC[C@]1(O)C[C@@H]2CN(CCc3c([nH]c4ccccc34)[C@@](C(=O)OC)(c3cc4c(cc3OC)N(C)[C@H]3[C@@](O)(C(=O)OC)[C@H](OC(C)=O)[C@]5(CC)C=CCN6CC[C@]43[C@@H]65)C2)C1 [VINBLASTINE]	4	5							
O=C1c2ccccc2C(=O)c2c1oc1cc(O)cc(O)c21	1030	1280	600	220	500	1000			
CCN(CC)CCOc1cc(O)c2c3c(oc2c1)C(=O)c1ccccc1C3=O	240	480		98		100			
COc1cccc2c1C(=O)c1c(O)c3c(c(O)c1C2=O)C[C@@](O)(C(=O)CO)C[C@@H]3O[C@H]1C[C@H](N)[C@H](O)[C@H](C)O1 [DOXORUBICIN]	40	30							
O=C1c2ccccc2C(=O)c2c1oc1cc(O)c3ccccc3c21	> 3200	> 3200		80600					
CN(C)CCOc1ccc2c3c(oc2c1)C(=O)c1ccccc1C3=O	730	940	150	300	200	10000			
CN(C)CCCOc1cc2oc3c(c2c2ccccc12)C(=O)c1ccccc1C3=O	> 2500	> 2500		1390			inactive		
CN(C)CCOc1cc2oc3c(c2c2ccccc12)C(=O)c1ccccc1C3=O	1300	1950		870			inactive		
CC(C)N(CCOc1cc(O)c2c3c(oc2c1)C(=O)c1ccccc1C3=O)C(C)C	220	1130		89		1000			
CISPLATIN								670	6700
Cc1cc(OCCN(C)C)cc2oc3c(c12)C(=O)c1ccccc1C3=O	> 2600	> 2600		1800					
O=C1c2ccccc2C(=O)c2c1oc1cc(O)ccc21	> 3800	> 3800		7780		10000			
O=C1c2c(O)ccc(O)c2C(=O)c2c(NCCNCCO)ccc(NCCNCCO)c21 [MITOXANTRONE]	20	30							
COc1cc([C@@H]2c3cc4c(cc3[C@@H](O[C@@H]3O[C@@H]5CO[C@@H](C)O[C@H]5[C@H](O)[C@H]3O)[C@H]3COC(=O)[C@H]23)OCO4)cc(OC)c1O [ETOPOSIDE]	500	1300							
O=C1c2ccccc2C(=O)c2c1oc1cc(O)c(Cl)cc21	> 3400	> 3400		6090		10000			
O=c1[nH]cc(F)c(=O)[nH]1 [FLUOROURACIL]	5400	8400							
Cc1cc(O)cc2oc3c(c12)C(=O)c1ccccc1C3=O	> 3500	> 3500		6650			inactive		
CN(C)CCOc1cc2oc3c(c2cc1Cl)C(=O)c1ccccc1C3=O	370	620	300	240	250	1000			
CN(C)CCCOc1cc(O)c2c3c(oc2c1)C(=O)c1ccccc1C3=O	680	680		45		100			
CN(C)CCCOc1cc2oc3c(c2cc1Cl)C(=O)c1ccccc1C3=O	590	590	150	280	170	10000			
O=C1c2ccccc2C(=O)c2c1oc1cc3c(cc21)OCO3	> 40300	> 40300		> 100000					
CN(C)CCOc1cc(O)c2c3c(oc2c1)C(=O)c1ccccc1C3=O	2130	2560		46		100			
CN(C)CCCOc1ccc2c3c(oc2c1)C(=O)c1ccccc1C3=O	1300	2600		340		10000			
